According to patent US9040532B2, “Alpha adrenergic receptor modulators” (Allergan, Inc., priority 2009, dated 2015):

What was measured:
Assay type in all cases: cell-based
Alpha 2A = molecular target: T1, Alpha 2A (Homo sapiens, UniProt P08913); assay: FLIPR assay, intracellular Ca2+ mobilization, alpha 2A; details: for EC50: agonist, read-out: Alpha 2A Potency (EC50); for Alpha 2A relative efficacy compared to a standard full agonist: value in parentheses
T1 sequence (P08913 1-465): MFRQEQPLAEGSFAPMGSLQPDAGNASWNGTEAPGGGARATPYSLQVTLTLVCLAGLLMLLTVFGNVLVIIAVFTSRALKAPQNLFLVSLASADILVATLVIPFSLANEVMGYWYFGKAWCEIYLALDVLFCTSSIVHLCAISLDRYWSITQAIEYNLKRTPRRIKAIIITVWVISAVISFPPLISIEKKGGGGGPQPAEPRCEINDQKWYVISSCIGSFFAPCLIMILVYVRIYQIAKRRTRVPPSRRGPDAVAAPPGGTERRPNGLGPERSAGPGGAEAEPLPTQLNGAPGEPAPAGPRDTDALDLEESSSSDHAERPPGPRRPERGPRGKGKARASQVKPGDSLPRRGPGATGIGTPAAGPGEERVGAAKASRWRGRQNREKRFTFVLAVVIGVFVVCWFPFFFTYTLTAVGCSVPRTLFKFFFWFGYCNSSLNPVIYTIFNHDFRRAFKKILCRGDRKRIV
Procedure: The compounds described herein were tested for alpha adrenergic activity using a Fluorometric Imaging plate Reader (FLIPR) assay (Princen et al., 2003, Cytometry Part A. 51, pp. 35-45). Cells are loaded into a plate reader with a Ca^2+ dye indicator and incubated with various compounds. This assay is adequate for monitoring the intracellular Ca^2+ mobilization from fluorescent readings to evaluate receptor agonists. […] The compounds described herein activate alpha adrenergic receptors.

Alpha 2B = molecular target: T2, Alpha 2B (Homo sapiens, UniProt P18089); assay: FLIPR assay, intracellular Ca2+ mobilization, alpha 2B; details: FLIPR; for EC50: agonist, read-out: Alpha 2B Potency (EC50); for Alpha 2B relative efficacy compared to a standard full agonist: value in parentheses
T2 sequence (P18089 1-450): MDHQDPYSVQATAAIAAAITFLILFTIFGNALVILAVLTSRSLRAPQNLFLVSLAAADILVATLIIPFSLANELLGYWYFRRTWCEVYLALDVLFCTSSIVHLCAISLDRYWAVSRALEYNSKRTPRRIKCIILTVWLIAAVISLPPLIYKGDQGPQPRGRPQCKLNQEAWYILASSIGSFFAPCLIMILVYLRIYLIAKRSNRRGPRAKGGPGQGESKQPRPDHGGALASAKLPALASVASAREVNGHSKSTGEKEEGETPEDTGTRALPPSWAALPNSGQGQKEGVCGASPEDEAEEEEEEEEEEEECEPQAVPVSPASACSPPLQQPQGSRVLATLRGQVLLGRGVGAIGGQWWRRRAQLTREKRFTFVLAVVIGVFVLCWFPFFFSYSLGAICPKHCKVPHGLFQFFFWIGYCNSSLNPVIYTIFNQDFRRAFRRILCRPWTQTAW
Procedure: (§1) Cells are loaded into a plate reader with a Ca^2+ dye indicator and incubated with various compounds. This assay is adequate for monitoring the intracellular Ca^2+ mobilization from fluorescent readings to evaluate receptor agonists.

Alpha 2C = molecular target: T3, Alpha 2C (Homo sapiens, UniProt P18825); assay: FLIPR assay, intracellular Ca2+ mobilization, alpha 2C; details: for EC50: agonist, read-out: Alpha 2C Potency (EC50); for Alpha 2C relative efficacy compared to a standard full agonist: value in parentheses
T3 sequence (P18825 1-462): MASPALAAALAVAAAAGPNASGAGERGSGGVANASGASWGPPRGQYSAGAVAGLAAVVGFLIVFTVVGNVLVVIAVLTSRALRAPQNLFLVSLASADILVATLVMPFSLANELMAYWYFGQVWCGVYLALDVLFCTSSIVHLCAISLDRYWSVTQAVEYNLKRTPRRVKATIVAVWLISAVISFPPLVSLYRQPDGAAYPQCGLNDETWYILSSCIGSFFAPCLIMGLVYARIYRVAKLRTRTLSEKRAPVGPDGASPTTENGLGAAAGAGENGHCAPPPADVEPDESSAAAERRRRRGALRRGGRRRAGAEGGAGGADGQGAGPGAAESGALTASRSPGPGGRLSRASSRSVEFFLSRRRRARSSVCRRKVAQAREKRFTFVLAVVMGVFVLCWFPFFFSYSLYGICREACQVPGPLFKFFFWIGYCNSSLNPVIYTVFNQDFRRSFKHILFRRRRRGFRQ
Procedure: as §1

Row | SMILES | EC50 (Alpha 2A) | Alpha 2A relative efficacy compared to a standard full agonist (Alpha 2A) | EC50 (Alpha 2B) | Alpha 2B relative efficacy compared to a standard full agonist (Alpha 2B) | EC50 (Alpha 2C) | Alpha 2C relative efficacy compared to a standard full agonist (Alpha 2C)
1 | c1ccc2c(NC3=NCCC3)cccc2c1 [Compound 1, N-1-Naphthyl-3,4-dihydro-2H-pyrrol-5-amine] | 61 nM | (0.81) | 30 nM | (0.16) | 5 nM | (0.88)
2 | Cc1ccc2ccccc2c1NC1=NCCC1 [Compound 2, N-(2-Methyl-1-naphthyl)-3,4-dihydro-2H-pyrrol-5-amine] | 733 nM | (0.61) | 145 nM | (0.18) | 368 nM | (0.85)
3 | Brc1ccc(NC2=NCCC2)c2ccccc12 [Compound 3, N-(4-Bromo-1-naphthyl)-3,4-dihydro-2H-pyrrol-5-amine] | – | – | 700 nM | (0.15) | 833 nM | (0.85)
4 | c1nc2cc(NC3=NCCC3)ccc2[nH]1 [Compound 4, N-(3,4-Dihydro-2H-pyrrol-5-yl)-1H-benzimidazol-5-amine] | – | – | 714 nM | (0.19) | 142 nM | (1.06)
5 | c1nc2c(cc1NC1=NCCC1)CCC2 [Compound 5, N-(3,4-Dihydro-2H-pyrrol-5-yl)-6,7-dihydro-5H-cyclopenta[b]pyridin-3-amine] | – | – | – | – | 1280 nM | (0.86)
6 | Clc1c(/N=C2\CCCN2)cnc2cccnc12 [Compound 6, 4-Chloro-N-[(2E)-pyrrolidin-2-ylidene]-1,5-naphthyridin-3-amine] | – | – | – | – | 2600 nM | (0.59)
7 | Clc1ccc(NC2=NCCC2)c2ccccc12 [Compound 7, N-(4-Chloro-1-naphthyl)-3,4-dihydro-2H-pyrrol-5-amine] | – | – | 1070 nM | (0.33) | 672 nM | (0.84)
8 | Brc1c(NC2=NCCC2)ccc2nccnc12 [Compound 8, 5-Bromo-N-(3,4-dihydro-2H-pyrrol-5-yl)quinoxalin-6-amine] | 1070 nM | (0.81) | 2200 nM | (0.21) | 1050 nM | (0.82)
9 | Clc1cc(NC2=NCCC2)cc2nc[nH]c12 [Compound 13, 7-Chloro-N-(3,4-dihydro-2H-pyrrol-5-yl)-1H-benzimidazol-5-amine] | – | – | 1840 nM | (0.35) | 435 nM | (0.98)
10 | c1cnc2cc(NC3=NCCC3)ccc2n1 [Compound 14, N-(3,4-Dihydro-2H-pyrrol-5-yl)quinoxalin-6-amine] | – | – | – | – | 2740 nM | (0.66)
11 | c1cc2c(c(NC3=NCCC3)c1)CCC2 [Compound 16, N-(2,3-Dihydro-1H-inden-4-yl)-3,4-dihydro-2H-pyrrol-5-amine] | – | – | – | – | 123 nM | (0.85)
12 | c1cc2cc(NC3=NCCC3)ccc2[nH]1 [Compound 17, N-(3,4-Dihydro-2H-pyrrol-5-yl)-1H-indol-5-amine] | – | – | 10 nM | (0.15) | 9 nM | (0.9)
13 | Cc1c(NC2=NCCC2)ccc2[nH]ccc12 [Compound 18, N-(3,4-Dihydro-2H-pyrrol-5-yl)-4-methyl-1H-indol-5-amine] | – | – | 39 nM | (0.18) | 69 nM | (0.9)
14 | Cc1cc(NC2=NCCC2)cc2cc[nH]c12 [Compound 19, N-(3,4-Dihydro-2H-pyrrol-5-yl)-7-methyl-1H-indol-5-amine] | – | – | 142 nM | (0.29) | 12 nM | (0.85)
15 | Brc1cc(NC2=NCCC2)cc2cc[nH]c12 [Compound 20, 7-Bromo-N-(3,4-dihydro-2H-pyrrol-5-yl)-1H-indol-5-amine] | – | – | 79 nM | (0.61) | 12 nM | (0.95)
16 | c1cc2ccc(NC3=NCCC3)cc2[nH]1 [Compound 21, N-(3,4-Dihydro-2H-pyrrol-5-yl)-1H-indol-6-amine] | – | – | – | – | 280 nM | (0.75)
17 | c1cc(NC2=NCCC2)c2[nH]ccc2c1 [Compound 22, N-(3,4-Dihydro-2H-pyrrol-5-yl)-1H-indol-7-amine] | – | – | – | – | 2160 nM | (0.61)
18 | c1cc2cc(NC3=NCCC3)ccc2s1 [Compound 23, N-1-Benzothien-5-yl-3,4-dihydro-2H-pyrrol-5-amine] | – | – | – | – | 89 nM | (0.66)
19 | c1cc2cc(NC3=NCCC3)ccc2o1 [Compound 24, N-1-Benzofuran-5-yl-3,4-dihydro-2H-pyrrol-5-amine] | – | – | – | – | 630 nM | (0.51)
20 | c1cnc2cc(NC3=NCCC3)ccc2c1 [Compound 28, N-(3,4-Dihydro-2H-pyrrol-5-yl)quinolin-7-amine] | – | – | – | – | 104 nM | (0.96)
21 | c1cnc2c(NC3=NCCC3)cccc2c1 [Compound 30, N-(3,4-dihydro-2H-pyrrol-5-yl)quinolin-8-amine] | – | – | – | – | 2970 nM | (0.71)
22 | c1cc(NC2=NCCC2)c2cnccc2c1 [Compound 32, N-(3,4-Dihydro-2H-pyrrol-5-yl)isoquinolin-8-amine] | – | – | – | – | 643 nM | (0.95)
23 | c1ccc2c(c1)CC[C@@H]2NC1=NCCC1 [Compound 33, N-[(1S)-2,3-Dihydro-1H-inden-1-yl]-3,4-dihydro-2H-pyrrol-5-amine] | – | – | – | – | 281 nM | (0.68)
24 | c1ccc2c(c1)CCC[C@@H]2NC1=NCCC1 [Compound 34, N-[(1S)-1,2,3,4-Tetrahydronaphthalen-1-yl]-3,4-dihydro-2H-pyrrol-5-amine] | – | – | 163 nM | (0.43) | 221 nM | (0.8)
25 | Fc1cccc2c1C(NC1=NCCC1)CC2 (centres unmarked) [Compound 35, N-(7-Fluoro-2,3-dihydro-1H-inden-1-yl)-3,4-dihydro-2H-pyrrol-5-amine] | – | – | 618 nM | (0.44) | 560 nM | (0.87)
26 | Cc1c(/N=C2\CCCN2)cnc2[nH]ccc12 [Compound 38, 4-Methyl-N-[(2E)-pyrrolidin-2-ylidene]-1H-pyrrolo[2,3-b]pyridin-5-amine] | 555 nM | (0.79) | – | – | 22 nM | (0.9)
